Measurements taken from ChEMBL document CHEMBL3991601, “The target landscape of clinical kinase drugs” (Science, 2017).
Activity calls are given as the source filed them.

Experiments:
[1] = target: Glycogen synthase kinase-3 alpha (Homo sapiens, UniProt P49840)
[2] = target: T1, Interleukin-1 receptor-associated kinase 4 (Homo sapiens, UniProt Q9NWZ3)
T1 sequence (Q9NWZ3 whole entry): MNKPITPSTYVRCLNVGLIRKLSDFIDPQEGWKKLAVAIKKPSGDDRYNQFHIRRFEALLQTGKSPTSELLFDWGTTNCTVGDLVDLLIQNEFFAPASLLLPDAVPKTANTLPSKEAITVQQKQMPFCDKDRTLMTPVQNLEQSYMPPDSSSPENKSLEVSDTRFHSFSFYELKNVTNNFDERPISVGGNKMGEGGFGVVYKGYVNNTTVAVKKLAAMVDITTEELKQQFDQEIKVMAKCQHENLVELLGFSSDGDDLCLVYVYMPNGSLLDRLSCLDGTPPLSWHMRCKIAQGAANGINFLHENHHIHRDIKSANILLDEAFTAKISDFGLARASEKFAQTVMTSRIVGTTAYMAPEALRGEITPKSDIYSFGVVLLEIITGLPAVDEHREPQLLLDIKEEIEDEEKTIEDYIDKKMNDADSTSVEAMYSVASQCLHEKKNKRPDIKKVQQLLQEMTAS

[3] = target: T2, Dual specificity mitogen-activated protein kinase kinase 6 (Homo sapiens, UniProt P52564)
T2 sequence (P52564 whole entry): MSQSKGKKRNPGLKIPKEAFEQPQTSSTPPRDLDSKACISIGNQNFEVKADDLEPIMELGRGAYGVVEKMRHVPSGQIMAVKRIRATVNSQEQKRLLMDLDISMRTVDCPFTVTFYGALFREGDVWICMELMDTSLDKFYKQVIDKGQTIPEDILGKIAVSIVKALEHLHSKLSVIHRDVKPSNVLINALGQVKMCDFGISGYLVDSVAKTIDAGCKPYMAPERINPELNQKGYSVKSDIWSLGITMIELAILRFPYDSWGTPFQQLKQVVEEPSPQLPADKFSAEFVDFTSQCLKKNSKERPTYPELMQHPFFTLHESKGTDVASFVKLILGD

[4] = target: T3, Exosome RNA helicase MTR4 (Homo sapiens, UniProt P42285)
T3 sequence (P42285 whole entry): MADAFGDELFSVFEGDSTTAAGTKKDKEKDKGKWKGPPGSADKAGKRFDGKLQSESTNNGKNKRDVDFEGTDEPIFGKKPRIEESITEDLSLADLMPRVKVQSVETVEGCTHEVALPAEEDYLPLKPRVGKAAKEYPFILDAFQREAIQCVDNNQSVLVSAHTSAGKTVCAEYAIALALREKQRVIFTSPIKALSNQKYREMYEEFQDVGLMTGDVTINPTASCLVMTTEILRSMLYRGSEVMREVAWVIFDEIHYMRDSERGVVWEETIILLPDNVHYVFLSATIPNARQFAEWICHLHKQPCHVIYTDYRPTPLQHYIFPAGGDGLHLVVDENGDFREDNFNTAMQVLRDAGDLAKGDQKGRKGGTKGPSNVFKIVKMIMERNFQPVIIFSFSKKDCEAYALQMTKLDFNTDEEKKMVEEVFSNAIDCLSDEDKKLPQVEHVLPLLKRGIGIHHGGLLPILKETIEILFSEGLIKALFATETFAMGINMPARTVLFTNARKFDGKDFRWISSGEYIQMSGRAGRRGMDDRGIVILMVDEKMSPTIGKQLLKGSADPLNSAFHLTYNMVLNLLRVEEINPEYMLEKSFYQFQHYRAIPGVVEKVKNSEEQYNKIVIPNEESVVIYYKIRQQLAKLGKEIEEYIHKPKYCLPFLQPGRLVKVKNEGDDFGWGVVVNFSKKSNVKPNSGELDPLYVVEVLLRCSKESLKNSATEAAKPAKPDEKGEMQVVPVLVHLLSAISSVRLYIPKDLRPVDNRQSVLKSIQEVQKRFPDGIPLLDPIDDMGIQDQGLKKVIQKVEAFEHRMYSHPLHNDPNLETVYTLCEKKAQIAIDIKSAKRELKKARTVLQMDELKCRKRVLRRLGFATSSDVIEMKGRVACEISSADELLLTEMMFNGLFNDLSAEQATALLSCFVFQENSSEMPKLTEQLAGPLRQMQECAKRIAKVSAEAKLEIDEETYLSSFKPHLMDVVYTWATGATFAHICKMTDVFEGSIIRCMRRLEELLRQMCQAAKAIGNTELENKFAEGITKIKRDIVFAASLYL

[5] = target: T4, General transcription and DNA repair factor IIH helicase subunit XPD (Homo sapiens, UniProt P18074); conditions: read-out: Kd apparent; k-562, colo 205, sk-n-be(2) and mv-4-11
T4 sequence (P18074 whole entry): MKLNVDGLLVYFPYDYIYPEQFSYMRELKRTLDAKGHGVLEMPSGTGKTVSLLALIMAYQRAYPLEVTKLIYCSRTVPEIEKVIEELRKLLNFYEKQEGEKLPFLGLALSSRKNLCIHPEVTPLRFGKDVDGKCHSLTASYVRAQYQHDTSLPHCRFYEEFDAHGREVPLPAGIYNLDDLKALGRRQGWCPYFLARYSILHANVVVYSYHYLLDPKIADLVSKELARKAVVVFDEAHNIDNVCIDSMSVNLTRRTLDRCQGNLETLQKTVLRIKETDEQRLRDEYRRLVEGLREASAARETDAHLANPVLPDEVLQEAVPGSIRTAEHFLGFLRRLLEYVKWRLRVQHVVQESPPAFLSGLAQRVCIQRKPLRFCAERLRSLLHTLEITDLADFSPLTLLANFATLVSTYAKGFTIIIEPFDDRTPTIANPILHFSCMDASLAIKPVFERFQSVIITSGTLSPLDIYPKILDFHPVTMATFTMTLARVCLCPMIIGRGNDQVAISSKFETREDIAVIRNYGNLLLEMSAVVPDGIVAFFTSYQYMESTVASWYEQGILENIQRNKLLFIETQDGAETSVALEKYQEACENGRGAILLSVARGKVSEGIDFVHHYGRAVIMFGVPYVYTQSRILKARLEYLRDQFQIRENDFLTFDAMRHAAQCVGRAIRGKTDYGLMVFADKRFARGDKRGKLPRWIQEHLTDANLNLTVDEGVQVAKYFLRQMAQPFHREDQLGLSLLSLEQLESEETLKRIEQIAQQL

[6] = target: Ribosomal protein S6 kinase beta-1 (Homo sapiens, UniProt P23443)
Note: in the data inactive means no Kd found up to 30 µM.

Glycogen synthase kinase-3 alpha, sequence (P49840 whole entry): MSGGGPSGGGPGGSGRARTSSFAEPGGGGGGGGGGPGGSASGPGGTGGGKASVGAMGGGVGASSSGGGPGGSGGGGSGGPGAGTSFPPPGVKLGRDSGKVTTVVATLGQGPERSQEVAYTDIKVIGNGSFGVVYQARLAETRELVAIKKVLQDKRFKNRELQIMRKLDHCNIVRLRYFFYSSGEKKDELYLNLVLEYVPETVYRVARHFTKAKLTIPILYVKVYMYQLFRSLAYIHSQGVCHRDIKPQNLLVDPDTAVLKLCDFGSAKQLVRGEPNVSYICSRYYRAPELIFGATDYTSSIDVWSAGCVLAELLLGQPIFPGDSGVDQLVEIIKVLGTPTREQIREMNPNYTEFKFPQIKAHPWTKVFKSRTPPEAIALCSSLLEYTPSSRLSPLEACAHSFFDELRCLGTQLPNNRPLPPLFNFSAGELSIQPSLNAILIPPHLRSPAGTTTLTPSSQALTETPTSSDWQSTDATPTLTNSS
Ribosomal protein S6 kinase beta-1, sequence (P23443 whole entry): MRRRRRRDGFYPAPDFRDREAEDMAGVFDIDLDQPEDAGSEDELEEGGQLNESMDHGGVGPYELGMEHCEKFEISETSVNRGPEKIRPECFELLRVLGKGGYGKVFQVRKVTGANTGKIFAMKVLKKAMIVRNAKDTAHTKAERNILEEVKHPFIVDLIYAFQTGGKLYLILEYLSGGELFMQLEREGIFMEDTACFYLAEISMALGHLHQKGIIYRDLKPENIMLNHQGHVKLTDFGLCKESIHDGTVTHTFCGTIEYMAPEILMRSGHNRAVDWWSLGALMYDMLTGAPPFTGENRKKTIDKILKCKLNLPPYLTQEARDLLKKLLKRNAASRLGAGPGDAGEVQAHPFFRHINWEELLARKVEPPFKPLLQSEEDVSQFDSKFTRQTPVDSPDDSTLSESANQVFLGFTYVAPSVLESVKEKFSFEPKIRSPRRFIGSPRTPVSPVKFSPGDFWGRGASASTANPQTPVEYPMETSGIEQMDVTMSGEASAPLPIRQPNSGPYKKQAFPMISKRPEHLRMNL

Kd [2] | Kd [4] | Kd [5] | Compound | Kd [1] | Kd [3] | Kd [6]
> 30 µM (inactive) | > 30 µM (inactive) | > 30 µM (inactive) | O=c1[nH]c([C@@H]2CCCN2)nc2c1oc1ccc(Cl)cc12 | > 30 µM (inactive) | > 30 µM (inactive) | 
> 30 µM (inactive) | > 30 µM (inactive) | > 30 µM (inactive) | CCN1CCN(Cc2ccc(Nc3ncc(F)c(-c4cc(F)c5nc(C)n(C(C)C)c5c4)n3)nc2)CC1 [ABEMACICLIB] | 0.013 µM (active) | > 30 µM (inactive) | > 30 µM (inactive)
 | > 30 µM (inactive) | > 30 µM (inactive) | CN(C)C/C=C/C(=O)Nc1cc2c(Nc3ccc(F)c(Cl)c3)ncnc2cc1O[C@H]1CCOC1 [AFATINIB] |  |  | 
> 30 µM (inactive) | > 30 µM (inactive) | > 30 µM (inactive) | CCN(CCCOc1ccc2c(Nc3cc(CC(=O)Nc4cccc(F)c4)n[nH]3)ncnc2c1)CCOP(=O)(O)O [BARASERTIB] |  | > 30 µM (inactive) | > 30 µM (inactive)
> 30 µM (inactive) | > 30 µM (inactive) |  | COc1cccc(Nc2ncnn3ccc(CN4CC[C@@H](N)[C@H](O)C4)c23)c1 [BMS-690514] | > 30 µM (inactive) | > 30 µM (inactive) | > 30 µM (inactive)
 | > 30 µM (inactive) | > 30 µM (inactive) | C[C@@]1(C(=O)Nc2ccc(F)nc2)CCCN1c1nc(Nc2cc(C3CC3)n[nH]2)c2cccn2n1 [BMS-754807] |  |  | 
> 30 µM (inactive) | > 30 µM (inactive) |  | CCOc1ccn(-c2ccc(F)cc2)c(=O)c1C(=O)Nc1ccc(Oc2ccnc(N)c2Cl)c(F)c1 [BMS-777607] | > 30 µM (inactive) | > 30 µM (inactive) | 
 | 2.61 µM |  | COc1cc2c(Oc3ccc4[nH]c(C)cc4c3F)ncnc2cc1OCCCN1CCCC1 [CEDIRANIB] |  |  | 
> 30 µM (inactive) | > 30 µM (inactive) | > 30 µM (inactive) | Cn1c(=O)n(-c2ccc(C(C)(C)C#N)cc2)c2c3cc(-c4cnc5ccccc5c4)ccc3ncc21 [DACTOLISIB] |  | > 30 µM (inactive) | 
> 30 µM (inactive) | > 30 µM (inactive) | > 30 µM (inactive) | COc1cc2ncnc3c2cc1OCCCCCN(C)Cc1ccc(Br)cc1N3 [JNJ-26483327] | > 30 µM (inactive) | > 30 µM (inactive) | 
 | > 30 µM (inactive) | > 30 µM (inactive) | CC1(C)CNc2cc(NC(=O)c3cccnc3NCc3ccncc3)ccc21 [MOTESANIB] |  |  | 
> 30 µM (inactive) | > 30 µM (inactive) |  | FC(F)(F)c1ccc(CNc2ccc(Cc3c[nH]c4ncc(Cl)cc34)cn2)cn1 [PEXIDARTINIB] | > 30 µM (inactive) | > 30 µM (inactive) | > 30 µM (inactive)
 | > 30 µM (inactive) | > 30 µM (inactive) | Cn1cnc2c(F)c(Nc3ccc(Br)cc3Cl)c(C(=O)NOCCO)cc21 [SELUMETINIB] |  |  | 
> 30 µM (inactive) | > 30 µM (inactive) |  | CC(C)(O)CC(=O)NCCn1ccc2ncnc(Nc3ccc(Oc4cccc(C(F)(F)F)c4)c(Cl)c3)c21 [TAK-285] | > 30 µM (inactive) | > 30 µM (inactive) | > 30 µM (inactive)
 | > 30 µM (inactive) | > 30 µM (inactive) | COc1cc2c(N3CCN(C(=O)Nc4ccc(OC(C)C)cc4)CC3)ncnc2cc1OCCCN1CCCCC1 [TANDUTINIB] |  |  | 

Compound | Kd [2] | Kd [4] | Kd [5] | Kd [1] | Kd [3] | Kd [6]
Cn1cc(-c2[nH]c3cc(NC(=O)[C@H](N)C4CCCCC4)cc4c3c2C=NNC4=O)cn1 | 2.61 µM (active) | > 30 µM (inactive) | > 30 µM (inactive) | > 30 µM (inactive) | > 30 µM (inactive) | 2.38 µM (active)
Cc1c(NC(=O)OC[C@@H]2COCCN2)cn2ncnc(Nc3ccc4c(cnn4Cc4cccc(F)c4)c3)c12 [AC-480] | > 30 µM (inactive) | > 30 µM (inactive) | > 30 µM (inactive) | > 30 µM (inactive) | > 30 µM (inactive) | > 30 µM (inactive)
C=CCn1c(=O)c2cnc(Nc3ccc(N4CCN(C)CC4)cc3)nc2n1-c1cccc(C(C)(C)O)n1 [ADAVOSERTIB] | > 30 µM (inactive) | > 30 µM (inactive) | > 30 µM (inactive) |  | > 30 µM (inactive) | > 30 µM (inactive)
CC1(COc2ccc3c(c2)ncn3-c2ccc3cccc(N4CCC(N)CC4)c3n2)COC1 [CRENOLANIB] |  | > 30 µM (inactive) | > 30 µM (inactive) | > 30 µM (inactive) | > 30 µM (inactive) | > 30 µM (inactive)
O=S(=O)(c1cccc2cnccc12)N1CCCNCC1 [FASUDIL] |  | > 30 µM (inactive) | > 30 µM (inactive) |  | > 30 µM (inactive) | 
CCc1nc(C(N)=O)c(Nc2ccc(N3CCC(N4CCN(C)CC4)CC3)c(OC)c2)nc1NC1CCOCC1 [GILTERITINIB] |  | > 30 µM (inactive) | > 30 µM (inactive) | > 30 µM (inactive) | 1.89 µM (active) | > 30 µM (inactive)
C[C@]1(O)C[C@@H](c2nc(-c3ccc4ccc(-c5ccccc5)nc4c3)c3c(N)nccn32)C1 [LINSITINIB] |  | > 30 µM (inactive) | > 30 µM (inactive) |  | > 30 µM (inactive) | 
N#CCNC(=O)c1ccc(-c2ccnc(Nc3ccc(N4CCOCC4)cc3)n2)cc1 [MOMELOTINIB] | > 30 µM (inactive) | > 30 µM (inactive) |  | > 30 µM (inactive) | > 30 µM (inactive) | > 30 µM (inactive)
C=CC(=O)Nc1cc(Nc2nccc(-c3cn(C)c4ccccc34)n2)c(OC)cc1N(C)CCN(C)C [OSIMERTINIB] | > 30 µM (inactive) | > 30 µM (inactive) |  | > 30 µM (inactive) | > 30 µM (inactive) | > 30 µM (inactive)
CN(c1ncccc1CNc1nc(Nc2ccc3c(c2)CC(=O)N3)ncc1C(F)(F)F)S(C)(=O)=O [PF-00562271] |  | > 30 µM (inactive) | 2.64 µM (active) | 0.845 µM (active) |  | 
CC(C)CC(=O)Nc1[nH]nc2c1CN(C(=O)C1CCN(C)CC1)C2(C)C [PHA-793887] | > 30 µM (inactive) | > 30 µM (inactive) | 0.01 µM (active) | 0.029 µM (active) |  | > 30 µM (inactive)
